Reference: ChEMBL document CHEMBL5523679, “Discovery of 1,2,3-triazole incorporated indole-piperazines as potent antitubercular agents: Design, synthesis, in vitro biological evaluation, molecular docking and ADME studies” (Bioorg Med Chem, 2024)
Values after ≈ are worked out from the molar mass of the structure shown.

Columns and labels:
Escherichia coli [1] = experiment: Antibacterial activity against Escherichia coli assessed as inhibition zone at 75 ug/ml by diffusion method; format: functional; settings: read-out: IZ
Staphylococcus aureus [2] = experiment: Antibacterial activity against Staphylococcus aureus assessed as inhibition zone at 75 ug/ml by diffusion method; format: functional; settings: read-out: IZ
[3] = Selectivity index, ratio of CC50 for African green monkey Vero cells to MIC for Mycobacterium tuberculosis H37Rv; format: toxicity; settings: read-out: Selectivity Index
Staphylococcus aureus [4] = experiment: Antibacterial activity against Staphylococcus aureus assessed as inhibition zone at 50 ug/ml by diffusion method; format: functional; settings: read-out: IZ
Escherichia coli [5] = experiment: Antibacterial activity against Escherichia coli assessed as inhibition zone at 25 ug/ml by diffusion method; format: functional; settings: read-out: IZ
[6] = Cytotoxicity against African green monkey Vero cells assessed as inhibition of cell growth at 6.25 ug/ml measured after 72 hrs by MTT assay relative to control; format: toxicity, cell-based; settings: chlorocebus sabaeus, at 6.25 µg/mL
Escherichia coli [7] = experiment: Antibacterial activity against Escherichia coli assessed as inhibition zone at 50 ug/ml by diffusion method; format: functional; settings: read-out: IZ
[8] = Cytotoxicity against African green monkey Vero cells measured after 72 hrs by MTT assay; format: toxicity, cell-based; settings: chlorocebus sabaeus
Pseudomonas aeruginosa [9] = experiment: Antibacterial activity against Pseudomonas aeruginosa assessed as inhibition zone at 75 ug/ml by diffusion method; format: functional; settings: read-out: IZ
Pseudomonas aeruginosa [10] = experiment: Antibacterial activity against Pseudomonas aeruginosa assessed as inhibition zone at 25 ug/ml by diffusion method; format: functional; settings: read-out: IZ
[11] = tested on: Mycobacterium tuberculosis; experiment: Antimycobacterial activity against Mycobacterium tuberculosis H37Rv assessed as bacterial growth inhibition by microplate Alamar blue assay; format: functional
Pseudomonas aeruginosa [12] = experiment: Antibacterial activity against Pseudomonas aeruginosa assessed as inhibition zone at 50 ug/ml by diffusion method; format: functional; settings: read-out: IZ
Staphylococcus aureus [13] = experiment: Antibacterial activity against Staphylococcus aureus assessed as inhibition zone at 25 ug/ml by diffusion method; format: functional; settings: read-out: IZ

Row | SMILES | zone of inhibition at 75 µg/mL (Escherichia coli [1]) | zone of inhibition at 75 µg/mL (Staphylococcus aureus [2]) | selectivity ratio [3] | zone of inhibition at 50 µg/mL (Staphylococcus aureus [4]) | zone of inhibition at 25 µg/mL (Escherichia coli [5]) | inhibition at 72 h, 6.25 ug/ml [6] | zone of inhibition at 50 µg/mL (Escherichia coli [7]) | CC50 at 72 h [8] | zone of inhibition at 75 µg/mL (Pseudomonas aeruginosa [9]) | zone of inhibition at 25 µg/mL (Pseudomonas aeruginosa [10]) | MIC [11] | zone of inhibition at 50 µg/mL (Pseudomonas aeruginosa [12]) | zone of inhibition at 25 µg/mL (Staphylococcus aureus [13])
1 | O=C(CCc1cn(Cc2cn(Cc3ccc(F)cc3)nn2)c2ccccc12)N1CCN(C(=O)c2ccccc2C(F)(F)F)CC1 | 25 mm | 20 mm | 268 | 13 mm | 15 mm | 5.4% | 23 mm | 837 µg/mL (≈ 1350 µM) | 18 mm | 10 mm | 5 µM | 15 mm | –
2 | O=C(CCc1cn(Cc2cn(Cc3ccc(F)cc3)nn2)c2ccccc12)N1CCN(S(=O)(=O)c2ccccc2)CC1 | 20 mm | 20 mm | 247 | 15 mm | 13 mm | 11.1% | 15 mm | 1540 µg/mL (≈ 2630 µM) | 15 mm | 10 mm | 10.6 µM | 13 mm | 9 mm
3 | COc1ccc(C(=O)N2CCN(C(=O)CCc3cn(Cc4cn(Cc5ccc(F)cc5)nn4)c4ccccc34)CC2)cc1 | 25 mm | 20 mm | 916 | 18 mm | 15 mm | 8.8% | 23 mm | 1470 µg/mL (≈ 2520 µM) | 18 mm | 9 mm | 2.7 µM | 13 mm | 12 mm
4 | O=C(CCc1cn(Cc2cn(Cc3ccc(F)cc3)nn2)c2ccccc12)N1CCN(C(=O)c2ccncc2F)CC1 | 20 mm | 18 mm | 283 | 15 mm | – | 8.5% | 15 mm | 882 µg/mL (≈ 1550 µM) | 18 mm | 10 mm | 5.5 µM | 15 mm | 10 mm
